Test results reported in US7208146B2, “Methods of treating lymphoma and leukemia” (Genitope Corporation, priority 1996, dated 2007).

System: parental BW5147.G.1.4 cells
Test: MTX sensitivity (growth cut off) of the parental cell line
Assay type: cell-based
Experimental: The parental (i e., non-transfected) BW5147.G.1.4 cells barely grow in the presence of 10 nM MTX. By visual inspection 3 to 5 days after plating, greater than about 98 percent of the parental BW5147.G.1.4 cells are killed when 1×10^4 cells are placed in 2 ml of medium containing 20 nM MTX in the well of a 24 well plate (this level of MTX is referred to as the growth cut off for the parental BW5147.G.1.4 cell line). At 30 nM MTX, colonies of BW5147.G.1.4 cells are seen at a frequency of less than 10^−7.
The transfected and selected cells (“selectants”) are plated in a range of MTX concentrations ranging from 10 to 100 nM; the cells are plated at a density of 1 to 5×10^4 cells per well in a 24 well plate (Costar); the selectants are plated at the same density of cells as was used to determine the level of MTX at which > about 98% of the parental cells were killed. This is done because MTX irreversibly binds to DHFR so that the number of cells present in a given volume effects the concentration of MTX required to kill the cells; that is if a higher density of cell is used, a higher concentration of MTX will be required to kill about 98% of the cells [For example when the parental cells are plated at a density of 1×10^4 cells/2 ml medium in the well of a 24 well plate 20 nM MTX is sufficient to kill >98% cells in a 3 to 5 day assay. If the density is increased two-fold (1×10^4 cells in ml medium), 25 nM MTX is required for >98% killing. If 5×10^4 cells are placed in 2 ml of medium in the well of a 24 well plate, 30 nM MTX is required to achieve >98% killing.]
Eight selectant clones having the highest levels of expression of DR were chosen for further manipulation. These eight selectant clones were then tested for their sensitivity to MTX. Each clone was plated at a density of 2×10^4 cells/well in a 24 well plate. Each well contained 1 ml of medium containing RPMI-1640, 10% dialyzed FCS and MTX. The clones were grown in the presence of either 3, 10, 30, 60 or 90 nM MTX. Non-transfected BW5147.G.1.4 cells were also grown in the above range of MTX as a control. Clones which grew in MTX levels at least 2–3 fold higher than that tolerated by the parental BW5147.G.1.4 (typically less than or equal to 10 nM MTX) were selected for further analysis. Four of the selectant clones grew in greater than or equal to 30 nM MTX and were retained; these clones are the primary transfectants chosen for amplification. All 4 clones which grew in >30 nM MTX were analyzed for the ability to express DR molecules on the surface by an ELISA. The cell surface ELISA was performed as follows.

SMILES: CN(Cc1cnc2nc(N)nc(N)c2n1)c1ccc(C(=O)N[C@@H](CCC(=O)O)C(=O)O)cc1 [MTX, methotrexate]
- growth of parental cells in the presence of MTX (10 nM MTX): barely grow
- parental BW5147.G.1.4 cells killed (20 nM MTX, 1×10^4 cells in 2 ml medium, well of a 24 well plate, visual inspection 3 to 5 days after plating): greater than 98%
- frequency of colonies of BW5147.G.1.4 cells (30 nM MTX): less than 10^−7
- MTX concentration sufficient to kill >98% of parental cells (1×10^4 cells/2 ml medium, 24 well plate, 3 to 5 day assay): 20 nM
- MTX level tolerated by parental BW5147.G.1.4 (2×10^4 cells/well in 1 ml, 24 well plate, RPMI-1640 with 10% dialyzed FCS): less than or equal to 10 nM
- MTX concentration required for >98% killing of parental cells (5×10^4 cells in 2 ml medium, 24 well plate): 30 nM
- MTX concentration required for >98% killing of parental cells (density increased two-fold (1×10^4 cells in ml medium)): 25 nM
